The first assay deals with MHC-I expression by COLO 205 cells. The experiment in a line: cells. It is filed as cell-based, human.
Settings: not given
How it is done: A panel of synthetic cannabinoids (Cayman Chemical, #9002891) was tested for MHC class I-inducing capability in COLO 205 cells as described above. COLO 205 cells were treated with the compounds at a concentration of 35 μM and evaluated for cell surface MHC class I expression after 48 hours. Cells were harvested, stained with MHC-I mAb W6/32 (Thermo Fisher). MHC-I expression was determined by flow cytometry.
As for “(1-butyl-6-methoxy-1H-indol-3-yl)-1-naphthalenyl-methanone [Example 107]”, the “Induction Fold” value is 2.39 Fold.

Regarding “(1-hexyl-1H-indol-3-yl)-1-naphthalenyl-methanone [Example 140]”, the “Induction Fold” value turned out to be 2.19 Fold.

“[1-(5-fluoropentyl)-6-nitro-1H-indol-3-yl]-1-naphthalenyl-methanone [Example 280]”: the “Induction Fold” value is 1.49 Fold.

Staying with this assay, now noted: Homo sapiens, COLO 205, 48 h, MHC-I expression, COLO 205 cells, compounds at 35 μM, 48 hours, flow cytometry (W6/32); read-out: Induction Fold.
`CCCCCn1cc(C(=O)Oc2ccc3cccnc3c2)c2ccccc21` [Example 18, quinolin-7-yl 1-pentyl-1H-indole-3-carboxylate]: the fold induction at 35 µM was 4.08.

As to `CCCCCC(C)(C)c1ccc([C@H]2CCC[C@@H](O)C2)c(O)c1` (relative stereo) [Example 209, cis-5-(1,1-dimethylhexyl)-2-(3-hydroxycyclohexyl)-phenol], the fold induction at 35 µM came to 1.84.

Turning to `CN(C)C(=O)n1nnnc1Cc1ccc(-c2ccccc2)cc1` [Example 288, 5-([1,1′-biphenyl]-4-ylmethyl)-N,N-dimethyl-1H-tetrazole-1-carboxamide], the fold induction at 35 µM was determined as 1.45.

Turning to `CCCCCn1cc(C(=O)Cc2ccc(C)cc2)c2ccccc21` [Example 181, 2-(4-methylphenyl)-1-(1-pentyl-1H-indol-3-yl)-ethanone], the fold induction at 35 µM was 1.93.

On to `CC(C)[C@H](NC(=O)c1cn(CCCCCF)c2ccccc12)C(N)=O` [Example 312, N-[(1S)-1-(aminocarbonyl)-2-methylpropyl]-1-(5-fluoropentyl)-1H-indole-3-carboxamide], for which the fold induction at 35 µM stood at 1.35.

For `O=C(Oc1cccc2ncccc12)c1cn(CC2CCCCC2)c2ccccc12` [Example 206, quinolin-5-yl 1-(cyclohexylmethyl)-1H-indole-3-carboxylate], the fold induction at 35 µM came to 1.86.

As to `CCCCCCC(C)(C)c1ccc([C@@H]2CCC[C@H](O)C2)c(O)c1` [Example 39, 2[(1R,3S)-3-hydroxycyclohexyl]-5-(2-methyloctan-2-yl)phenol], the fold induction at 35 µM is 3.14.

With `CC(C)(C)C(NC(=O)c1cn(Cc2ccccc2)c2ccccc12)C(N)=O` (centres unmarked) [Example 186, N-(1-amino-3,3-dimethyl-1-oxobutan-2-yl)-1-benzyl-1H-indole-3-carboxamide], the fold induction at 35 µM turned out to be 1.9.

As for `Cc1ccc(C(=O)c2cn(CCCCCCl)c3ccccc23)c2ccccc12` [Example 189, (1-(5-chloropentyl)-1H-indol-3-yl)(4-methylnaphthalen-1-yl)methanone], the fold induction at 35 µM is 1.89.

With `CCCCCn1cc(C(=O)Oc2cccc3ccccc23)c2ccccc21` [Example 249, naphthalen-1-yl 1-pentyl-1H-indole-3-carboxylate], the fold induction at 35 µM is 1.63.

Consider `CCCC(Cl)Cn1cc(C(=O)C2C(C)(C)C2(C)C)c2ccccc21` (centres unmarked) [Example 157, (1-(2-chloropentyl)-1H-indol-3-yl)(2,2,3,3-tetramethylcyclopropyl)methanone], for which the fold induction at 35 µM was determined as 2.07.

In the case of `CCCCn1cc(C(=O)c2ccc(C)c3ccccc23)c2ccccc21` [Example 69, (1-butyl-1H-indol-3-yl)(4-methylnaphthalen-1-yl)methanone], the fold induction at 35 µM came out at 2.71.

Consider `CCCCCn1cc(C(=O)c2c(CC)ccc3ccccc23)c2ccccc21` [Example 89, (2-ethylnaphthalen-1-yl)(1-pentyl-1H-indol-3-yl)methanone], for which the fold induction at 35 µM was found to be 2.5.

With `CCCCCn1cc(C(=O)Oc2ccc3ccncc3c2)c2ccccc21` [Example 274, isoquinolin-7-yl 1-pentyl-1H-indole-3-carboxylate], the fold induction at 35 µM came out at 1.52.

With `CC(C)Cn1cc(C(=O)c2ccc3ccccc3c2)c2ccccc21` [Example 284, (1-isobutyl-1H-indol-3-yl)(naphthalen-2-yl)methanone], the fold induction at 35 µM amounted to 1.46.

For `CN(C)C(=O)n1nnc(Cc2ccc(-c3ccccc3)cc2)n1` [Example 278, 5-([1,1′-biphenyl]-4-ylmethyl)-N,N-dimethyl-2H-tetrazole-2-carboxamide], the fold induction at 35 µM turned out to be 1.49.

With `CCCCCCCn1cc(C(=O)C2C(C)(C)C2(C)C)c2ccccc21` [Example 118, (1-heptyl-1H-indol-3-yl)(2,2,3,3-tetramethylcyclopropyl)-methanone], the fold induction at 35 µM came out at 2.33.

For `CC(C)[C@H](NC(=O)c1nn(CCCCCCl)c2ccccc12)C(N)=O` [Example 170, N-[(1S)-1-(aminocarbonyl)-2-methylpropyl]-1-(5-chloropentyl)-1H-indazole-3-carboxamide], the fold induction at 35 µM worked out at 2.01.

As for `CCC(C(N)=O)N(C)C(=O)c1nn(Cc2ccc(F)cc2)c2ccccc12` (single isomer, unassigned) [Example 135, N-(1-amino-1-oxobutan-2-yl)-1-(4-fluorobenzyl)-N-methyl-1H-indazole-3-carboxamide], the fold induction at 35 µM came out at 2.23.

On to `CCCCn1cc(C(=O)c2ccc(OC)c3ccccc23)c2ccccc21` [Example 370, (1-butyl-1H-indol-3-yl)(4-methoxy-1-naphthalenyl)-methanone], for which the fold induction at 35 µM was found to be 0.82.

Turning to `CCCCCn1nc(C(=O)NC(C)(C(N)=O)C(C)C)c2ccccc21` (single isomer, unassigned) [Example 151, N-(1-amino-2,3-dimethyl-1-oxobutan-2-yl)-1-pentyl-1H-indazole-3-carboxamide], the fold induction at 35 µM stood at 2.13.

Regarding `CCCC(C)n1cc(C(=O)c2ccc3ccccc3c2)c2ccccc21` (centres unmarked) [Example 362, naphthalen-2-yl(1-(pentan-2-yl)-1H-indol-3-yl)methanone], the fold induction at 35 µM is 0.95.

Regarding `CCCCCc1cc(O)cc(OCCCCCCCCCCC(=O)NC2CC2)c1` [Example 331, N-cyclopropyl-11-(3-hydroxy-5-pentylphenoxy)-undecanamide], the fold induction at 35 µM was 1.22.

Regarding `COc1ccc(C(=O)c2cn(CCN3CCOCC3)c3ccccc23)c2ccccc12` [Example 21, (4-methoxy-1-naphthalenyl)[1-[2-(4-morpholinyl)ethyl]-1H-indol-3-yl]-methanone], the fold induction at 35 µM is 3.85.

For the compound `C=CCCCn1cc(C(=O)c2ccc(C)c3ccccc23)c2ccccc21` [Example 334, (4-methylnaphthalen-1-yl)(1-(pent-4-en-1-yl)-1H-indol-3-yl)methanone], the fold induction at 35 µM amounted to 1.2.

The same assay, now with this note: MHC-I expression, COLO 205 cells, compounds at 35 μM, 48 hours, flow cytometry (W6/32).
For the compound `CCCCCCCC(C)(C)c1ccc([C@H]2CCC[C@H](O)C2)c(O)c1` (relative stereo) [Example 301, rel-2-[(1S,3S)-3-hydroxycyclohexyl)]-5-(2-methylnonan-2-yl)phenol], the “Induction Fold” value amounted to 1.41 Fold.

For the compound `O=C(c1cccc2ccccc12)c1cn(CCCCCF)c2ccccc12` [Example 79, [1-(5-fluoropentyl)-1H-indol-3-yl]-1-naphthalenyl-methanone], the “Induction Fold” value came to 2.57 Fold.

Consider `COC(=O)[C@@H](NC(=O)c1nn(Cc2ccc(F)cc2)c2ccccc12)C(C)(C)C` [Example 46, N-[[1-[(4-fluorophenyl)methyl]-1H-indazol-3-yl]carbonyl]-3-methyl-1-valine, methyl ester], for which the “Induction Fold” value came to 3.02 Fold.

For `COC(=O)[C@@H](NC(=O)c1nn(CCCCCF)c2ccccc12)C(C)C` [Example 279, N-[[1-(5-fluoropentyl)-1H-indazol-3-yl]carbonyl]-L-valine, methyl ester], the “Induction Fold” value is 1.49 Fold.

(Values after patent publication US20210038559A1, “CANNABINOIDS AND DERIVATIVES FOR PROMOTING IMMUNOGENICITY OF TUMOR AND INFECTED CELLS” (priority 2018, published 2021).)
